Source: patent US11691971B2, “Naphthyridinone compounds as JAK2 V617F inhibitors” (Incyte Corporation, priority 2020, dated 2023)
Counter-ions that a name gives are not always drawn.

How the values were obtained:
[1] = target: catalytic domain (JH1, amino acids 808-1132) of human JAK2 (Homo sapiens (Human), UniProt O60674); assay: JAK2 HTRF Enzyme Activity Assay; assay type: biochemical; settings: ATP 30 μM, 60 minutes at 25° C.; read-out: ENZ 30UMATP IC50
Protocol: Example D. JAK2 HTRF Enzyme Activity Assay
JAK2 enzyme activity assays utilize catalytic domain (JH1, amino acids 808-1132) of human JAK2 expressed as N-terminal His-tagged protein in a baculovirus expression system (BPS Bioscience, Catalog #40450). The assays was conducted in black 384-well polystyrene plates in a final reaction volume of 20 μL. JAK2 (0.015 nM) was incubated with compounds (100 nL serially diluted in DMSO) in the presence of ATP (30 μM or 1 mM) and 500 nM Biotin-labeled […] (SEQ ID NO.: 1) peptide (BioSource International, custom synthesis) in assay buffer (50 mM Tris, pH=7.5, 10 mM MgCl2, 0.01% Brij-35, 0.1% BSA, 1 mM EGTA, 5% Glycerol and 5 mM DTT) for 60 minutes at 25° C. The reactions were stopped by the addition of 10 μL of detection buffer (50 mM Tris, pH 7.8, 0.5 mg/mL BSA, 150 mM NaCl), supplemented with EDTA, LANCE Eu-W1024 anti-phosphotyrosine (PY20), (PerkinElmer, Catalog #AD0067) and Streptavidin SureLight APC (PerkinElmer Catalog #CR130-100), for a final concentration of 15 mM, 1.5 nM and 75 nM, respectively. HTRF signals were read after 30 minutes incubation at room temperature on a PHERAstar FS plate reader (BMG LABTECH). Data was analyzed with IDBS XLfit and GraphPad Prism 5.0 software using a four parameter dose response curve to determine IC50 for each compound.

[2] = target: pseudo-kinase domain (JH2) of human Wild Type JAK2 (Homo sapiens (Human), UniProt O60674, F794H/W659A/W777A); assay: JAK2 LanthaScreen JH2-WT Binding Assay; settings: JAK2 JH2-WT 0.145 nM, 50 nM tracer, 1 hour at 25° C.; read-out: JH2BIND_WT IC50
Sequence of pseudo-kinase domain (JH2) of human Wild Type JAK2 (O60674 536-812 W659A/W777A/F794H): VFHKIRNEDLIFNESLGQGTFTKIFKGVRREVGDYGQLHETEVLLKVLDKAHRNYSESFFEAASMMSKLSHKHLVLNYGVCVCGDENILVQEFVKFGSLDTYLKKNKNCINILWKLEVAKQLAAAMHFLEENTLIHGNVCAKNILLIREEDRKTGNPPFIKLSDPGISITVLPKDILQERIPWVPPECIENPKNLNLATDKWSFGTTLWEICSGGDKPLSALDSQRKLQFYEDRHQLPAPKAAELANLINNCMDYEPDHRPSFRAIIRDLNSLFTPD
Protocol: Example B. JAK2 LanthaScreen JH2-WT Binding Assay
(§1) The assay was conducted in black 384-well polystyrene plates in a final reaction volume of 20 μL. JAK2 JH2-WT (0.145 nM) was incubated with compounds (100 nL serially diluted in DMSO) in the presence of 50 nM Fluorescent JAK2-JH2 Tracer (MedChem Express Catalog #HY-102055) and 0.25 nM Streptavidin-Tb cryptate (Cisbio Part #610SATLB) in assay buffer (50 mM Tris, pH=7.5, 10 mM MgCl2, 0.01% Brij-35, 0.1% BSA, 1 mM EGTA, 5% Glycerol and 5 mM DTT). Non-specific binding was accessed in the presence of 2 mM ATP. After incubation for 1 hour at 25° C., LanthaScreen signals were read on a PHERAstar FS plate reader (BMG LABTECH). Data was analyzed with IDBS XLfit and GraphPad Prism 5.0 software using a four parameter dose response curve to determine IC50 for each compound.

[3] = target: pseudo-kinase domain (JH2) of human V617F mutant JAK2 (Homo sapiens (Human), UniProt O60674, F794H/V617F/W659A/W777A); assay: JAK2 LanthaScreen JH2-V617F Binding Assay; settings: JAK2 JH2-V617F 0.26 nM, 50 nM tracer, 1 hour at 25° C.; read-out: JH2BINDING_V617F IC50
Sequence of pseudo-kinase domain (JH2) of human V617F mutant JAK2 (O60674 536-812 V617F/W659A/W777A/F794H): as the sequence (O60674 536-812 W659A/W777A/F794H) above, with V82F counted along it
Protocol: The assay was conducted in black 384-well polystyrene plates in a final reaction volume of 20 μL. […] Non-specific binding was accessed in the presence of 2 mM ATP. After incubation for 1 hour at 25° C., LanthaScreen signals were read on a PHERAstar FS plate reader (BMG LABTECH). Data was analyzed with IDBS XLfit and GraphPad Prism 5.0 software using a four parameter dose response curve to determine IC50 for each compound.

[4] = target: catalytic domain (JH1, amino acids 826-1132) of human JAK2 (Homo sapiens (Human), UniProt O60674); assay: JAK2 LanthaScreen JH1 Binding Assay; settings: JAK2 JH1 1.5 nM, 50 nM tracer, 2 hours at 25° C.; read-out: JH1BIND IC50
Sequence of catalytic domain (JH1, amino acids 826-1132) of human JAK2 (O60674 826-1132): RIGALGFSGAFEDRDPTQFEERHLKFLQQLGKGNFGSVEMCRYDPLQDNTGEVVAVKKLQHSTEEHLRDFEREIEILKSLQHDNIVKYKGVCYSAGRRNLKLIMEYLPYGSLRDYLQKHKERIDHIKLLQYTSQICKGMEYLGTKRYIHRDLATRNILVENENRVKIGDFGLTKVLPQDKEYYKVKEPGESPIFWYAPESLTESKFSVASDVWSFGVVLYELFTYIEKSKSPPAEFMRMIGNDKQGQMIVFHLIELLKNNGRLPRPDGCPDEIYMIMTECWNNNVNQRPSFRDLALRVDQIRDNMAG
Protocol: Example A. JAK2 LanthaScreen JH1 Binding Assay
as §1, with “JAK2 JH1 binding assay utilizes catalytic domain (JH1, amino acids 826-1132) of human JAK2 expressed as N-terminal FLAG-tagged, biotinylated protein in a baculovirus expression system (Carna Biosciences, Product #08-445-20N). The” for “The”, “JH1 (1.5” for “JH2-WT (0.145”, “fluorescent JAK2-JH1 tracer” for “Fluorescent JAK2-JH2 Tracer (MedChem Express Catalog #HY-102055)”, “0.5” for “0.25”, “2 hours” for “1 hour”

Sequence of catalytic domain (JH1, amino acids 808-1132) of human JAK2 (O60674 808-1132): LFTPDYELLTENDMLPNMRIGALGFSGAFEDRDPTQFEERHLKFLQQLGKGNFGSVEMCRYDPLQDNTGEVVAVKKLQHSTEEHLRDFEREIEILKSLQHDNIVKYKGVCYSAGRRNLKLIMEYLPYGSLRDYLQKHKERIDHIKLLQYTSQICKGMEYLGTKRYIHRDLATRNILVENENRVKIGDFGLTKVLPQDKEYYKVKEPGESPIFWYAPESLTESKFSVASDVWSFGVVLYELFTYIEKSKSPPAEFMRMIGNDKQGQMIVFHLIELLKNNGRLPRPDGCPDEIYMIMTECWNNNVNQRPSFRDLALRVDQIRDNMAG

SMILES | IC50 [1] [µM] | IC50 [2] [µM] | IC50 [3] [µM] | IC50 [4] [µM]
COc1c(Nc2cc(NC(=O)C3CC3)nc3cc[nH]c(=O)c23)cccc1-c1cn[nH]c1 [Example 1, N-(4-((2-Methoxy-3-(1H-pyrazol-4-yl)phenyl)amino)-5-oxo-5,6-dihydro-1,6-naphthyridin-2-yl)cyclopropanecarboxamide] | 1 to 10 | ≤ 0.1 | 0.1 to 0.5 | 1 to 10
COc1c(Nc2cc(NC(=O)C3CC3)nc3cc[nH]c(=O)c23)cccc1-c1cnc(C2CCOCC2)s1 [Example 2, N-(4-((2-Methoxy-3-(2-(tetrahydro-2H-pyran-4-yl)thiazol-5-yl)phenyl)amino)-5-oxo-5,6-dihydro-1,6-naphthyridin-2-yl)cyclopropanecarboxamide Trifluoroacetic Acid Salt] | > 10 | ≤ 0.1 | ≤ 0.1 | > 10
COc1c(Nc2cc(NC(=O)C3CC3)nc3cc[nH]c(=O)c23)cccc1-c1cnn(C2CCCC2)c1 [Example 3, N-(4-((3-(1-Cyclopentyl-1H-pyrazol-4-yl)-2-methoxyphenyl)amino)-5-oxo-5,6-dihydro-1,6-naphthyridin-2-yl)cyclopropanecarboxamide Trifluoroacetic Acid Salt] | > 10 | 0.1 to 0.5 | 0.1 to 0.5 | > 10
COc1c(Nc2cc(NC(=O)C3CC3)nc3cc[nH]c(=O)c23)cccc1N1CCN(S(=O)(=O)C2CC2)CC1 [Example 4, N-(4-((3-(4-(Cyclopropylsulfonyl)piperazin-1-yl)-2-methoxyphenyl)amino)-5-oxo-5,6-dihydro-1,6-naphthyridin-2-yl)cyclopropanecarboxamide Trifluoroacetic Acid Salt] | > 10 | 0.1 to 0.5 | 0.1 to 0.5 | 1 to 10
COc1c(Nc2cc(NC(=O)C3CC3)nc3cc[nH]c(=O)c23)cccc1-c1cnn(C2CCOCC2)c1 [Example 5, N-(4-((2-Methoxy-3-(1-(tetrahydro-2H-pyran-4-yl)-1H-pyrazol-4-yl)phenyl)amino)-5-oxo-5,6-dihydro-1,6-naphthyridin-2-yl)cyclopropanecarboxamide Trifluoroacetic Acid Salt] | > 10 | ≤ 0.1 | ≤ 0.1 | > 10
O=C(Nc1cc(Nc2cccc(-c3cnn(C4CCOCC4)c3)c2)c2c(=O)[nH]ccc2n1)C1CC1 [Example 6, N-(5-oxo-4-((3-(1-(tetrahydro-2H-pyran-4-yl)-1H-pyrazol-4-yl)phenyl)amino)-5,6-dihydro-1,6-naphthyridin-2-yl)cyclopropanecarboxamide Trifluoroacetic Acid Salt] | 1 to 10 | > 10 | > 10 | 1 to 10
COc1cc(-c2cnn(C3CCOCC3)c2)ccc1Nc1cc(NC(=O)C2CC2)nc2cc[nH]c(=O)c12 [Example 7, N-(4-((2-Methoxy-4-(1-(tetrahydro-2H-pyran-4-yl)-1H-pyrazol-4-yl)phenyl)amino)-5-oxo-5,6-dihydro-1,6-naphthyridin-2-yl)cyclopropanecarboxamide Trifluoroacetic Acid Salt] | 1 to 10 | 1 to 10 | > 10 | 1 to 10
COc1c(Nc2cc(NC(=O)C3CC3)nc3cc[nH]c(=O)c23)cccc1-c1cnn(C(C)C(N)=O)c1 (stereo not drawn) [Example 8, N-(4-((3-(1-(1-Amino-1-oxopropan-2-yl)-1H-pyrazol-4-yl)-2-methoxyphenyl)amino)-5-oxo-5,6-dihydro-1,6-naphthyridin-2-yl)cyclopropanecarboxamide Trifluoroacetic Acid Salt] | 0.1 to 0.5 | ≤ 0.1 | ≤ 0.1 | 1 to 10
CCn1ccc2cccc(Nc3cc(NC(=O)C4CC4)nc4cc[nH]c(=O)c34)c21 [Example 9, N-(4-((1-Ethyl-1H-indol-7-yl)amino)-5-oxo-5,6-dihydro-1,6-naphthyridin-2-yl)cyclopropanecarboxamide Trifluoroacetic Acid Salt] | > 10 | 1 to 10 | 1 to 10 | > 10
